Source: the supplement of paper PMC11208160

Assay: recombinant UMI read abundance after kanamycin selection (control-corrected) (log10(CPM+1)); higher = more efficient recombination; extreme values may be limits of the assay; sequences stand for … in AGTGCAGAGAAAATCGGCCAGTTTTCTCTGCCTGCAGTCCGCATGCCGTGGGACCCCTTGGGTTCTAACCTGTTGCCTAGATTTATGCAGCGGACTGCCTTTCTCCCAAAGTGATAAACCGG…AGGTTGGTTTCACT; site = the 11-nt donor
Procedure, shortened: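 Two replicates each of selected and unselected plating were used in this pooled Escherichia coli screen of donor and donor-binding-loop pairs for the IS621 bridge recombinase. Selection was with IPTG (0.07 mM) and kanamycin. Counts of recombinant UMIs, amplified across the donor–target junction, were converted to CPM, averaged, scaled by control-derived factors and reported as log10(CPM+1).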
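Further: IS621 bridge recombinase in Escherichia coli cells against a fixed T5 target plasmid.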

In order of falling “recombinant UMI read abundance (log10)” value:
1. ATGGGGTCATGGACCGGTTTTCCCGGTAATCCGTATTTGAC (site ATGGGGTCTGT)  3.47
2. ATGTAGTCATGGACCGGTTTTCCCGGTAATCCGTATTTGGC (site ATGTAGTCTGC)  3.26
3. ATGTATGCATGGACCGGTTTTCCCGGTAATCCGTATTTGGC (site ATGTATGCTGC)  3.22
4. ATGTAGGCATGGACCGGTTTTCCCGGTAATCCGTATTTGAC (site ATGTAGGCTGT)  3.04
5. ATGGGCTCATGGACCGGTTTTCCCGGTAATCCGTATTTGTC (site ATGGGCTCTGA)  2.97
6. ATGTAGACATGGACCGGTTTTCCCGGTAATCCGTATTTGGC (site ATGTAGACTGC)  2.91
7. ATGGAGTCATGGACCGGTTTTCCCGGTAATCCGTATTTGGA (site ATGGAGTCTTC)  2.86
8. ATGCAGGCATGGACCGGTTTTCCCGGTAATCCGTATTTGGC (site ATGCAGGCTGC)  2.77
9. ATGATGGCATGGACCGGTTTTCCCGGTAATCCGTATTTGAC (site ATGATGGCTGT)  2.7
10. ATCTAGACATGGACCGGTTTTCCCGGTAATCCGTATTTGAC (site ATCTAGACTGT)  2.68
11. ATCGTCACATGGACCGGTTTTCCCGGTAATCCGTATTTGCA (site ATCGTCACTTG)  2.56
12. ATGACTACATGGACCGGTTTTCCCGGTAATCCGTATTTGAC (site ATGACTACTGT)  2.54
13. ATGTCCTCATGGACCGGTTTTCCCGGTAATCCGTATTTGTA (site ATGTCCTCTTA)  2.5
14. ATGTAGGCATGGACCGGTTTTCCCGGTAATCCGTATTTGAC (site ATGTAGGCTGA)  2.33
15. ATCGATACATGGACCGGTTTTCCCGGTAATCCGTATTTGAC (site ATCGATACTGT)  2.32
16. ATGAAGGCATGGACCGGTTTTCCCGGTAATCCGTATTTGGC (site ATGAAGGCTGC)  2.32
17. ATCTACACATGGACCGGTTTTCCCGGTAATCCGTATTTGCT (site ATCTACACTAG)  2.26
18. ATCTAGACATGGACCGGTTTTCCCGGTAATCCGTATTTGAC (site ATCTAAACTGT)  2.21
19. ATGGGAGCATGGACCGGTTTTCCCGGTAATCCGTATTTGCT (site ATGGGAGCTAG)  2.19
20. ATGTAGACATGGACCGGTTTTCCCGGTAATCCGTATTTGGC (site ATGTAGGCTGC)  2.14
21. ATGAAGGCATGGACCGGTTTTCCCGGTAATCCGTATTTGGC (site ATGGAGGCTGC)  2.09
22. ATGAAGGCATGGACCGGTTTTCCCGGTAATCCGTATTTGGC (site ATGTAGGCTGC)  2.08
23. ATCTAATCATGGACCGGTTTTCCCGGTAATCCGTATTTGGA (site ATCTAATCTTC)  2.05
24. ATCTACACATGGACCGGTTTTCCCGGTAATCCGTATTTGCT (site TTCTACACTAG)  2.05
25. ATGTCGTCATGGACCGGTTTTCCCGGTAATCCGTATTTGTA (site ATGTCGTCTTA)  1.95
26. ATGACTACATGGACCGGTTTTCCCGGTAATCCGTATTTGAC (site ACGACTACTGT)  1.92
27. ATCTATTCATGGACCGGTTTTCCCGGTAATCCGTATTTGAC (site ATCTATCCTGT)  1.89
28. ATGTAGGCATGGACCGGTTTTCCCGGTAATCCGTATTTGAC (site ATGTAGGCTGC)  1.87
29. ATGTAGTCATGGACCGGTTTTCCCGGTAATCCGTATTTGGC (site ATGTAGACTGC)  1.85
30. ATGGAGACATGGACCGGTTTTCCCGGTAATCCGTATTTGGT (site ATGGAGACTAC)  1.83
31. ATGTACACATGGACCGGTTTTCCCGGTAATCCGTATTTGAA (site ATGTACACTTT)  1.82
32. ATGACGACATGGACCGGTTTTCCCGGTAATCCGTATTTGCA (site ATGACGACTTG)  1.81
33. ATGAAGGCATGGACCGGTTTTCCCGGTAATCCGTATTTGGC (site ATGCAGGCTGC)  1.72
34. ATGGTTCCATGGACCGGTTTTCCCGGTAATCCGTATTTGTC (site ATGGTTCCTGA)  1.67
35. ATGTAGACATGGACCGGTTTTCCCGGTAATCCGTATTTGGC (site ATGTAGTCTGC)  1.67
36. ATGGAGACATGGACCGGTTTTCCCGGTAATCCGTATTTGGT (site ATAGAGACTAC)  1.66
37. ATGTAGGCATGGACCGGTTTTCCCGGTAATCCGTATTTGAC (site ATGTAGGCTGG)  1.57
38. ATCTACACATGGACCGGTTTTCCCGGTAATCCGTATTTGCT (site CTCTACACTAG)  1.56
39. ATGTATGCATGGACCGGTTTTCCCGGTAATCCGTATTTGGC (site ATGTAAGCTGC)  1.52
40. ATCTATTCATGGACCGGTTTTCCCGGTAATCCGTATTTGAC (site ATCTATTCTGT)  1.51
41. ATGTATGCATGGACCGGTTTTCCCGGTAATCCGTATTTGGC (site ATGTACGCTGC)  1.51
42. ATGACTGCATGGACCGGTTTTCCCGGTAATCCGTATTTGTC (site ATGACTGCTGA)  1.47
43. ATGCTTCCATGGACCGGTTTTCCCGGTAATCCGTATTTGCA (site ATGCTTCCTTG)  1.47
44. ATCTACACATGGACCGGTTTTCCCGGTAATCCGTATTTGCT (site GTCTACACTAG)  1.41
45. ATGCTGACATGGACCGGTTTTCCCGGTAATCCGTATTTGGT (site ATGCTGACTAC)  1.32
46. ATCTATCCATGGACCGGTTTTCCCGGTAATCCGTATTTGAC (site ATCTATCCTGT)  0.991
47. ATGCAGGCATGGACCGGTTTTCCCGGTAATCCGTATTTGGC (site ATGTAGGCTGC)  0.922
48. ATGACTACATGGACCGGTTTTCCCGGTAATCCGTATTTGAC (site AGGACTACTGT)  0.907
49. ATGTATGCATGGACCGGTTTTCCCGGTAATCCGTATTTGGC (site ATGTAGGCTGC)  0.86
50. ATGAGCACATGGACCGGTTTTCCCGGTAATCCGTATTTGGA (site ATGAGCACTTC)  0.82
51. ATGAGGCCATGGACCGGTTTTCCCGGTAATCCGTATTTGAC (site ATGAGGCCTGT)  0.716
52. ATGGAGACATGGACCGGTTTTCCCGGTAATCCGTATTTGGT (site ATTGAGACTAC)  0.681
53. ATCGATACATGGACCGGTTTTCCCGGTAATCCGTATTTGAC (site ATCTATACTGT)  0.652
54. ATCGTTCCATGGACCGGTTTTCCCGGTAATCCGTATTTGTT (site ATCGTTCCTAA)  0.568
55. ATGACTACATGGACCGGTTTTCCCGGTAATCCGTATTTGAC (site AAGACTACTGT)  0.508
56. ATGTAGCCATGGACCGGTTTTCCCGGTAATCCGTATTTGTT (site ATGTAGCCTAA)  0.171
57. ATGGAGACATGGACCGGTTTTCCCGGTAATCCGTATTTGGT (site ATCGAGACTAC)  0.157
58. ATCTATTCATGGACCGGTTTTCCCGGTAATCCGTATTTGAC (site ATCTATACTGT)  0.00799
59. ATCGATACATGGACCGGTTTTCCCGGTAATCCGTATTTGAC (site ATCCATACTGT)  0
60. ATCTAGACATGGACCGGTTTTCCCGGTAATCCGTATTTGAC (site ATCTACACTGT)  0
61. ATCTAGACATGGACCGGTTTTCCCGGTAATCCGTATTTGAC (site ATCTATACTGT)  0
62. ATCTATCCATGGACCGGTTTTCCCGGTAATCCGTATTTGAC (site ATCTATACTGT)  0
63. ATCTATCCATGGACCGGTTTTCCCGGTAATCCGTATTTGAC (site ATCTATGCTGT)  0
64. ATCTATCCATGGACCGGTTTTCCCGGTAATCCGTATTTGAC (site ATCTATTCTGT)  0
65. ATCTATTCATGGACCGGTTTTCCCGGTAATCCGTATTTGAC (site ATCTATGCTGT)  0
66. ATGACGACATGGACCGGTTTTCCCGGTAATCCGTATTTGCA (site AGGAAGACTTG)  0
67. ATGAGGCCATGGACCGGTTTTCCCGGTAATCCGTATTTGAC (site ATAAGGCCTGT)  0
68. ATGAGGCCATGGACCGGTTTTCCCGGTAATCCGTATTTGAC (site ATCAGGCCTGT)  0
69. ATGAGGCCATGGACCGGTTTTCCCGGTAATCCGTATTTGAC (site ATTAGGCCTGT)  0
70. ATGCAGGCATGGACCGGTTTTCCCGGTAATCCGTATTTGGC (site ATGAAGGCTGC)  0
71. ATGCAGGCATGGACCGGTTTTCCCGGTAATCCGTATTTGGC (site ATGGAGGCTGC)  0
72. ATGCCACCATGGACCGGTTTTCCCGGTAATCCGTATTTGTA (site ATGCCACCTTA)  0
73. ATGTAGACATGGACCGGTTTTCCCGGTAATCCGTATTTGGC (site ATGTAGCCTGC)  0
74. ATGTAGTCATGGACCGGTTTTCCCGGTAATCCGTATTTGGC (site ATGTAGCCTGC)  0
75. ATGTAGTCATGGACCGGTTTTCCCGGTAATCCGTATTTGGC (site ATGTAGGCTGC)  0
